≈ marks a conversion by molar mass, not a printed value. Read-outs that look alike come from different tables or passages of the source. *1 amine or outer side, *2 acyl side, *3 side chain or, on linkers, in order; H or OH if unused. Where a SMILES comes first, the peptide text is derived from it. Bridges are numbered along the chain shown (N, C = ends). [ ]: non-standard residue; d: D form. The star is where a group is joined. NH(1,3-benzodioxol-5-yl) = c1cc2c(cc1N*)OCO2; Phe(3,5-F2) = N[C@@H](Cc1cc(F)cc(F)c1)C(=O)O; NH(1-Me-indolin-5-yl) = CN1CCc2cc(N*)ccc21; Morpholine(3S-CO) = O=C(O)[C@@H]1COCCN1; Pro(4S-Me) = C[C@@H]1CN[C@H](C(=O)O)C1; NH(4-Cl-2-F-phenyl) = Fc1cc(Cl)ccc1N*; Pro(4R-Me) = C[C@H]1CN[C@H](C(=O)O)C1; NH(3,4-Me2-phenyl) = Cc1ccc(N*)cc1C; Hyp = O=C(O)[C@@H]1C[C@@H](O)CN1; NH(4-Et-phenyl) = CCc1ccc(N*)cc1; NMeT = CN[C@H](C(=O)O)[C@@H](C)O; aThr = C[C@H](O)[C@H](N)C(=O)O; Pip = O=C(O)[C@@H]1CCCCN1; CO = O=C([*:1])[*:2]
Assays:
Sa-ClpP = biological target: T1, Sa-ClpP (Staphylococcus aureus, UniProt Q2G036); test: ADEP displacement fluorescence polarization assay (FP probe ADEP 2591); assay type: binding
T1 construct: made in house; host or cells: E. coli BL21(DE3)
T1 sequence (Q2G036 1-195): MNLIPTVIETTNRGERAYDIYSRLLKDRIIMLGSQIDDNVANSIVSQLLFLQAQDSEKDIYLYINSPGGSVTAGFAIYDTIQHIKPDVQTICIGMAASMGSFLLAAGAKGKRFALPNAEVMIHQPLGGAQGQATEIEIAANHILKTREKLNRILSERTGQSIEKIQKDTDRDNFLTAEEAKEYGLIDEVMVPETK
Summary of the method: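 Probe displacement was measured in mP after compounds sat 120 min at room temperature with pre-equilibrated (1 h) Sa-ClpP (15 μM) and ADEP 2591 FP probe (50 nM) in pH 8.0 Tris-HCl with 2% DMSO. Data were scaled between DMSO and 200 μM ADEP 2378 and fit by variable-slope log-inhibitor regression.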

[1] = system: Streptococcus pyogenes, ATCC 700294; test: Minimal inhibitory concentration assay (microbroth dilution); assay type: cell-based
Summary of the method: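 Plates with two-fold compound dilution series in broth were incubated overnight, aerobically, at 37° C, following CLSI microdilution guidance.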

[2] = system: Staphylococcus aureus, ATCC 29213; test: as above; assay type: cell-based; conditions: ATCC29213, read-out: Minimal Inhibitory Concentrations S. aureus ATCC 29213
Summary of the method: (§1)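 Visual read-out; MIC is the lowest drug concentration with no bacterial growth after overnight aerobic incubation at 37 °C. Compound was tested in two-fold dilutions starting at 200 μM final, with an inoculum of approximately 10^5 cfu/mL, following CLSI microdilution guidance.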

[3] = system: Bacillus subtilis, ATCC 23857; test: as above; assay type: cell-based
Summary of the method: as §1

[4] = system: Staphylococcus aureus, NRS70; test: as above; assay type: cell-based
Summary of the method: as §1

[5] = Streptococcus pyogenes, ATCC700294; read-out: Minimal Inhibitory Concentrations S. pyogenes ATCC 700294
[6] = Bacillus subtilis, ATCC23857; read-out: Minimal Inhibitory Concentrations B. subtilis ATCC 23857
[7] = Staphylococcus aureus, NRS70; read-out: Minimal Inhibitory Concentrations S. aureus NRS70
[8] = Streptococcus pyogenes, ATCC700294, read-out: Minimal Inhibitory Concentrations S. pyogenes ATCC 700294
[9] = Bacillus subtilis, ATCC23857, read-out: Minimal Inhibitory Concentrations B. subtilis ATCC 23857
[10] = Staphylococcus aureus, NRS70, read-out: Minimal Inhibitory Concentrations S. aureus NRS70

| SMILES | IC50 (Sa-ClpP) [µM] | MIC [1, 5] [µM] | MIC [2] [µM] | MIC [3, 6] [µM] | MIC [4, 7] [µM] | MIC [1, 8] [µM] | MIC [3, 9] [µM] | MIC [4, 10] [µM] | MIC ([3]; B. subtilis ATCC 23857; read-out: Minimal Inhibitory Concentrations B. subtilis ATCC 23857) [µM] |
| --- | --- | --- | --- | --- | --- | --- | --- | --- | --- |
| CCc1ccc(NC(=O)N[C@@H](Cc2cc(F)cc(F)c2)C(=O)N[C@@H]2C(=O)N3CCC[C@H]3C(=O)N(C)[C@@H]([C@@H](C)O)C(=O)N[C@@H](C)C(=O)N3C[C@@H](C)C[C@H]3C(=O)O[C@H]2C)cc1 [Compound 37, (S)-3-(3,5-difluorophenyl)-2-(3-(4-ethylphenyl)ureido)-N-((2S,6S,9S,11aS,17S,18S,20aS)-9-((R)-1-hydroxyethyl)-2,6,10,18-tetramethyl-5,8,11,16,20-pentaoxohexadecahydro-1H,5H,16H-dipyrrolo[2,1-c:2′,1′-l][1]oxa[4,7,10,13]tetraazacyclohexadecin-17-yl)propanamide] ({NH(4-Et-phenyl)-CO}-[Phe(3,5-F2)][aThr]P[NMeT]A[Pro(4S-Me)]; ester 2-C) | 7 ± 0.4 | 0.1 (≈ 0.0826 µg/mL) | 0.1 (≈ 0.0826 µg/mL) | 0.05 (≈ 0.0413 µg/mL) | 0.1 (≈ 0.0826 µg/mL) |  |  |  |  |
| C[C@@H]1C[C@H]2C(=O)O[C@@H](C)[C@H](NC(=O)[C@H](Cc3cc(F)cc(F)c3)NC(=O)Nc3ccc4c(c3)CCN4C)C(=O)N3C[C@H](O)C[C@H]3C(=O)N3CCOC[C@H]3C(=O)N[C@@H](C)C(=O)N2C1 [Compound 315, (S)-3-(3,5-difluorophenyl)-N-((6aS,8R,12S,13S,15aS,17R,21S,23aS)-8-hydroxy-13,17,21-trimethyl-6,11,15,20,23-pentaoxooctadecahydro-6H,11H,15H-[1,4]oxazino[3,4-i]dipyrrolo[2,1-c:2′,1′-l][1]oxa[4,7,10,13]tetraazacyclohexadecin-12-yl)-2-(3-(1-methylindolin-5-yl)ureido)propanamide] ({NH(1-Me-indolin-5-yl)-CO}-[Phe(3,5-F2)][aThr][Hyp][Morpholine(3S-CO)]A[Pro(4R-Me)]; ester 2-C) | 13.5 ± 0.6 |  | 5 (≈ 4.33 µg/mL) |  |  | 0.625 (≈ 0.542 µg/mL) | 20 (≈ 17.3 µg/mL) | 5 (≈ 4.33 µg/mL) |  |
| CCc1ccc(NC(=O)N[C@@H](Cc2cc(F)cc(F)c2)C(=O)N[C@@H]2C(=O)N3CCC[C@H]3C(=O)N(C)[C@@H]([C@@H](C)O)C(=O)N[C@@H](C)C(=O)N3C[C@H](C)C[C@H]3C(=O)O[C@H]2C)cc1 [Compound 42, (S)-3-(3,5-difluorophenyl)-2-(3-(4-ethylphenyl)ureido)-N-((2R,6S,9S,11aS,17S,18S,20aS)-9-((R)-1-hydroxyethyl)-2,6,10,18-tetramethyl-5,8,11,16,20-pentaoxohexadecahydro-1H,5H,16H-dipyrrolo[2,1-c:2′,1′-l][1]oxa[4,7,10,13]tetraazacyclohexadecin-17-yl)propanamide] ({NH(4-Et-phenyl)-CO}-[Phe(3,5-F2)][aThr]P[NMeT]A[Pro(4R-Me)]; ester 2-C) | 7.12 ± 0.2 | 0.05 (≈ 0.0413 µg/mL) | 0.05 (≈ 0.0413 µg/mL) | 0.01 (≈ 0.00826 µg/mL) | 0.02 (≈ 0.0165 µg/mL) |  |  |  |  |
| C[C@@H]1C[C@H]2C(=O)O[C@@H](C)[C@H](NC(=O)[C@H](Cc3cc(F)cc(F)c3)NC(=O)Nc3ccc4c(c3)OCO4)C(=O)N3C[C@H](O)C[C@H]3C(=O)N3CCOC[C@H]3C(=O)N[C@@H](C)C(=O)N2C1 [Compound 319, (S)-2-(3-(benzo[d][1,3]dioxol-5-yl)ureido)-3-(3,5-difluorophenyl)-N-((6aS,8R,12S,13S,15aS,17R,21S,23aS)-8-hydroxy-13,17,21-trimethyl-6,11,15,20,23-pentaoxooctadecahydro-6H,11H,15H-[1,4]oxazino[3,4-i]dipyrrolo[2,1-c:2′,1′-l][1]oxa[4,7,10,13]tetraazacyclo-hexadecin-12-yl)propanamide] ({NH(1,3-benzodioxol-5-yl)-CO}-[Phe(3,5-F2)][aThr][Hyp][Morpholine(3S-CO)]A[Pro(4R-Me)]; ester 2-C) | 7.75 ± 0.6 | 0.313 (≈ 0.268 µg/mL) | 2.5 (≈ 2.14 µg/mL) | 10 (≈ 8.56 µg/mL) | 5 (≈ 4.28 µg/mL) |  |  |  |  |
| Cc1ccc(NC(=O)N[C@@H](Cc2cc(F)cc(F)c2)C(=O)N[C@H]2COC(=O)[C@@H]3C[C@@H](C)CN3C(=O)[C@H](C)NC(=O)[C@@H]3CCCCN3C(=O)[C@@H]3CCCN3C2=O)cc1C [Compound 207, (S)-3-(3,5-difluorophenyl)-N-((2R,6S,8aS,14aS,20S,23aS)-2,6-dimethyl-5,8,14,19,23-pentaoxooctadecahydro-1H,5H,14H,19H-pyrido[2,1-i]dipyrrolo[2,1-c:2′,1′-l][1]oxa[4,7,10,13]tetraazacyclohexadecin-20-yl)-2-(3-(3,4-dimethylphenyl)ureido)propanamide] | 5.2 ± 0.3 |  | < 0.2 |  |  | < 0.2 | < 0.2 | < 0.2 |  |
| C[C@@H]1C[C@H]2C(=O)O[C@@H](C)[C@H](NC(=O)[C@H](Cc3cc(F)cc(F)c3)NC(=O)Nc3ccc(Cl)cc3F)C(=O)N3CCC[C@H]3C(=O)N3CCCC[C@H]3C(=O)N[C@@H](C)C(=O)N2C1 [Compound 307, (S)-2-(3-(4-chloro-2-fluorophenyl)ureido)-3-(3,5-difluorophenyl)-N-((2R,6S,8aS,14aS,20S,21S,23aS)-2,6,21-trimethyl-5,8,14,19,23-pentaoxooctadecahydro-1H,5H,14H,19H-pyrido[2,1-i]dipyrrolo[2,1-c:2′,1′-l][1]oxa[4,7,10,13]tetraazacyclo-hexadecin-20-yl)propanamide] ({NH(4-Cl-2-F-phenyl)-CO}-[Phe(3,5-F2)][aThr]P[Pip]A[Pro(4R-Me)]; ester 2-C) | 7.8 ± 0.4 | 0.156 (≈ 0.132 µg/mL) | 0.039 (≈ 0.033 µg/mL) | 0.039 (≈ 0.033 µg/mL) | 0.039 (≈ 0.033 µg/mL) |  |  |  |  |
| Cc1ccc(NC(=O)N[C@@H](Cc2ccccc2)C(=O)N[C@H]2COC(=O)[C@@H]3C[C@@H](C)CN3C(=O)[C@H](C)NC(=O)[C@@H]3CCCCN3C(=O)[C@@H]3CCCN3C2=O)cc1C [Compound 206, (S)—N-((2R,6S,8aS,14aS,20S,23aS)-2,6-dimethyl-5,8,14,19,23-pentaoxooctadecahydro-1H,5H,14H,19H-pyrido[2,1-i]dipyrrolo[2,1-c:2′,1′-l][1]oxa[4,7,10,13]tetraazacyclohexadecin-20-yl)-2-(3-(3,4-dimethylphenyl)ureido)-3-phenylpropanamide] | 7.1 ± 0.3 |  | 0.39 (≈ 0.301 µg/mL) |  |  | < 0.2 | < 0.2 | 0.39 (≈ 0.301 µg/mL) |  |
| C[C@@H]1C[C@H]2C(=O)OC[C@H](NC(=O)[C@H](Cc3cc(F)cc(F)c3)NC(=O)Nc3ccc4c(c3)OCO4)C(=O)N3C[C@H](O)C[C@H]3C(=O)N3CCOC[C@H]3C(=O)N[C@@H](C)C(=O)N2C1 [Compound 318, (S)-2-(3-(benzo[d][1,3]dioxol-5-yl)ureido)-3-(3,5-difluorophenyl)-N-((6aS,8R,12S,15aS,17R,21S,23aS)-8-hydroxy-17,21-dimethyl-6,11,15,20,23-pentaoxooctadecahydro-6H,11H,15H-[1,4]oxazino[3,4-i]dipyrrolo[2,1-c:2′,1′-l][1]oxa[4,7,10,13]tetraazacyclo-hexadecin-12-yl)propanamide] ({NH(1,3-benzodioxol-5-yl)-CO}-[Phe(3,5-F2)]S[Hyp][Morpholine(3S-CO)]A[Pro(4R-Me)]; ester 2-C) | 6.54 ± 0.5 | 0.625 (≈ 0.526 µg/mL) | 20 (≈ 16.8 µg/mL) | > 20 | 20 (≈ 16.8 µg/mL) |  |  |  |  |
| Cc1ccc(NC(=O)N[C@@H](Cc2cc(F)cc(F)c2)C(=O)N[C@@H]2C(=O)N3C[C@H](O)C[C@H]3C(=O)N3CCOC[C@H]3C(=O)N[C@@H](C)C(=O)N3C[C@H](C)C[C@H]3C(=O)O[C@H]2C)cc1C [Compound 215, (S)-3-(3,5-difluorophenyl)-2-(3-(3,4-dimethylphenyl)ureido)-N-((6aS,8R,12S,13S,15aS,17R,21S,23aS)-8-hydroxy-13,17,21-trimethyl-6,11,15,20,23-pentaoxooctadecahydro-6H,11H,15H-[1,4]oxazino[3,4-i]dipyrrolo[2,1-c:2′,1′-l][1]oxa[4,7,10,13]tetraazacyclohexadecin-12-yl)propanamide] ({NH(3,4-Me2-phenyl)-CO}-[Phe(3,5-F2)][aThr][Hyp][Morpholine(3S-CO)]A[Pro(4R-Me)]; ester 2-C) | 6.8 ± 0.3 |  | 0.4 (≈ 0.336 µg/mL) |  |  | < 0.2 | 3.1 (≈ 2.6 µg/mL) | 0.8 (≈ 0.672 µg/mL) |  |
| C[C@@H]1C[C@H]2C(=O)OC[C@H](NC(=O)[C@H](Cc3ccccc3)NC(=O)Nc3ccc(OC(F)(F)F)cc3)C(=O)N3CCC[C@H]3C(=O)N3CCCC[C@H]3C(=O)N[C@@H](C)C(=O)N2C1 [Compound 205] | 21.6 ± 1.4 | 0.1 (≈ 0.0828 µg/mL) | 0.39 (≈ 0.323 µg/mL) |  | 0.2 (≈ 0.166 µg/mL) |  |  |  | 0.2 (≈ 0.166 µg/mL) |

From patent US10457707B2, “Substituted urea depsipeptide analogs as activators of the CLPP endopeptidase” (priority 2015, dated 2019)
